Columns and labels:
S. pneumoniae D39V [1] = test: fitness (endpoint OD595 vs no drug) (fraction); higher = more growth
Method in brief: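 In 384-well plates at 37 °C, cultures began at OD595 0.01 in 30 µl, with 55 µl used for S. pneumoniae. OD595 readings every 30 min for 14 h were corrected by the first reading. Fitness divides the stationary-phase transition optical density by the robust mean of no-drug control wells. The result is capped at 1.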

B. subtilis 168 = test: Bliss interaction score (quartile over a dose matrix) (fitness difference); higher = more antagonism (negative = synergy)
Method in brief: (§1)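 The Bliss score is observed minus expected fitness, where expected fitness is the product of the single-drug fitness values inferred from the combination data. Fitness is the OD595 at the onset of stationary phase over the plate's robust no-drug mean, capped at 1. Scores are summarised by quartiles over technical, biological and donor/recipient replicates.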

S. aureus DSM 20231 = test: as above
Method in brief: as §1

S. aureus Newman = test: as above
Method in brief: as §1

S. pneumoniae D39V [2] = test: as above
Method in brief: as §1
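For Bliss interaction score (quartile over a dose matrix) in this document: first quartile when negative (synergy) and third quartile when positive (antagonism).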
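For fitness (endpoint OD595 vs no drug) in this document: OD595 on entry to stationary phase over no-drug wells; at most 1.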

CC1=C(C(=O)O)N2C(=O)[C@@H](NC(=O)[C@H](N)c3ccccc3)[C@H]2SC1 [Cephalexin] + CO[C@H]1/C=C/O[C@@]2(C)Oc3c(C)c(O)c4c(O)c(c(/C=N/N5CCN(C)CC5)c(O)c4c3C2=O)NC(=O)/C(C)=C\C=C\[C@H](C)[C@H](O)[C@@H](C)[C@@H](O)[C@@H](C)[C@H](OC(C)=O)[C@@H]1C [Rifampicin]
fitness, S. pneumoniae D39V [1], one replicate
Conditions	first compound 0.125 µg/mL	first compound 0.25 µg/mL	first compound 0.5 µg/mL	first compound 1 µg/mL	first compound 2 µg/mL	first compound 4 µg/mL
partner 0.025 µg/mL	–	–	–	0.258	0.0265	0.0322
partner 0.05 µg/mL	0.714	0.774	0.7	–	–	–
partner 0.1 µg/mL	0.314	0.257	0.225	–	–	–
partner 0.2 µg/mL	0.207	0.141	0.108	0	0	0

fitness, S. pneumoniae D39V [1]
Conditions	first compound 1 µg/mL	first compound 2 µg/mL	first compound 4 µg/mL
partner 0.05 µg/mL	0.301	0.0661	0.0542
partner 0.1 µg/mL	0.14	0.0642	0.0638

Conditions	Bliss interaction score
B. subtilis 168	0.12
S. aureus DSM 20231	0.0837
S. aureus Newman	0.0156
S. pneumoniae D39V [2]	-0.065

CC1=C(C(=O)O)N2C(=O)[C@@H](NC(=O)[C@H](N)c3ccccc3)[C@H]2SC1 [Cephalexin] + Clc1ccc(COC(Cn2ccnc2)c2ccc(Cl)cc2Cl)c(Cl)c1 [Miconazole]
fitness, S. pneumoniae D39V [1], one replicate
Conditions	first compound 0.125 µg/mL	first compound 0.25 µg/mL	first compound 0.5 µg/mL
partner 1.25 µg/mL	0.987	0.878	0.858
partner 2.5 µg/mL	0.885	0.826	0.819
partner 5 µg/mL	0.89	0.867	0.893

fitness, S. pneumoniae D39V [1]
Conditions	first compound 1 µg/mL	first compound 2 µg/mL	first compound 4 µg/mL
partner 1.073 µg/mL	–	–	0.0455
partner 2.145 µg/mL	–	–	0.0466
partner 4.29 µg/mL	0.482	0.37	0.234

Conditions	Bliss interaction score
B. subtilis 168	0.0898
S. aureus DSM 20231	0.0471
S. aureus Newman	0.063
S. pneumoniae D39V [2]	-0.0715

CC1=C(C(=O)O)N2C(=O)[C@@H](NC(=O)[C@H](N)c3ccccc3)[C@H]2SC1 [Cephalexin] + O=C1CN(/N=C/c2ccc([N+](=O)[O-])o2)C(=O)N1 [Nitrofurantoin]
fitness, S. pneumoniae D39V [1], one replicate
Conditions	first compound 0.125 µg/mL	first compound 0.25 µg/mL	first compound 0.5 µg/mL	first compound 1 µg/mL	first compound 2 µg/mL	first compound 4 µg/mL
partner 2 µg/mL	0.934	0.942	0.958	–	–	–
partner 4 µg/mL	0.92	0.958	0.953	–	–	–
partner 5.14 µg/mL	–	–	–	0.716	0.243	0.0653
partner 8 µg/mL	0.756	0.775	0.805	–	–	–

fitness, S. pneumoniae D39V [1]
Conditions	first compound 1 µg/mL	first compound 2 µg/mL	first compound 4 µg/mL
partner 1.285 µg/mL	0.762	0.226	0.0641
partner 2.57 µg/mL	0.768	0.336	0.0742

Conditions	Bliss interaction score
B. subtilis 168	0.0716
S. aureus DSM 20231	0.145
S. aureus Newman	0.0656
S. pneumoniae D39V [2]	0.168

CNC(C)C1CCC(N)C(OC2C(N)CC(N)C(OC3OCC(C)(O)C(NC)C3O)C2O)O1 (stereo not given) [Gentamicin] + CO[C@H]1/C=C/O[C@@]2(C)Oc3c(C)c(O)c4c(O)c(c(/C=N/N5CCN(C)CC5)c(O)c4c3C2=O)NC(=O)/C(C)=C\C=C\[C@H](C)[C@H](O)[C@@H](C)[C@@H](O)[C@@H](C)[C@H](OC(C)=O)[C@@H]1C [Rifampicin]
S. pneumoniae D39V [1], partner 0.025 µg/mL, main component drawn
Conditions	fitness
first compound 2 µg/mL	≥ 1
first compound 4 µg/mL	≥ 1
first compound 8 µg/mL	0.935

S. pneumoniae D39V [1], partner 0.2 µg/mL, one replicate, main component drawn
Conditions	fitness
first compound 2 µg/mL	0
first compound 4 µg/mL	0
first compound 8 µg/mL	0

main component drawn
Conditions	Bliss interaction score
B. subtilis 168	0.225
S. aureus DSM 20231	0.0516
S. aureus Newman	0.0286
S. pneumoniae D39V [2]	0.083

CNC(C)C1CCC(N)C(OC2C(N)CC(N)C(OC3OCC(C)(O)C(NC)C3O)C2O)O1 (stereo not given) [Gentamicin] + C[C@@H](O)[C@H]1C(=O)N2C(C(=O)O)=C(SCCNC=N)C[C@H]12 [Imipenem]
fitness, S. pneumoniae D39V [1], main component drawn
Conditions	partner 0.005 µg/mL	partner 0.0065 µg/mL	partner 0.01 µg/mL	partner 0.013 µg/mL	partner 0.02 µg/mL	partner 0.026 µg/mL
first compound 2 µg/mL	0.924	0.989	0.915	≥ 1	0.914	0.661
first compound 4 µg/mL	0.928	0.971	0.922	0.996	0.92	0.964
first compound 8 µg/mL	0.895	0.917	0.864	0.931	0.874	0.892

main component drawn
Conditions	Bliss interaction score
B. subtilis 168	0.199
S. aureus DSM 20231	0.0591
S. aureus Newman	-0.0478
S. pneumoniae D39V [2]	0.0671

CNC(C)C1CCC(N)C(OC2C(N)CC(N)C(OC3OCC(C)(O)C(NC)C3O)C2O)O1 (stereo not given) [Gentamicin] + Clc1ccc(COC(Cn2ccnc2)c2ccc(Cl)cc2Cl)c(Cl)c1 [Miconazole]
fitness, S. pneumoniae D39V [1], main component drawn
Conditions	partner 1.073 µg/mL	partner 1.25 µg/mL	partner 2.145 µg/mL	partner 2.5 µg/mL	partner 4.29 µg/mL	partner 5 µg/mL
first compound 2 µg/mL	≥ 1	0.915	≥ 1	0.901	0.912	0.905
first compound 4 µg/mL	≥ 1	0.884	0.998	0.893	0.987	0.911
first compound 8 µg/mL	0.996	0.838	≥ 1	0.868	0.913	0.875

main component drawn
Conditions	Bliss interaction score
B. subtilis 168	-0.151
S. aureus DSM 20231	0.102
S. aureus Newman	0.0417
S. pneumoniae D39V [2]	0.0753

CNC(C)C1CCC(N)C(OC2C(N)CC(N)C(OC3OCC(C)(O)C(NC)C3O)C2O)O1 (stereo not given) [Gentamicin] + O=C1CN(/N=C/c2ccc([N+](=O)[O-])o2)C(=O)N1 [Nitrofurantoin]
fitness, S. pneumoniae D39V [1], main component drawn
Conditions	partner 1.285 µg/mL	partner 2 µg/mL	partner 2.57 µg/mL	partner 4 µg/mL	partner 8 µg/mL
first compound 2 µg/mL	0.948	0.861	0.951	0.791	0.45
first compound 4 µg/mL	0.943	0.897	0.945	0.747	0.409
first compound 8 µg/mL	0.953	0.831	0.957	0.659	0.368

S. pneumoniae D39V [1], partner 5.14 µg/mL, one replicate, main component drawn
Conditions	fitness
first compound 2 µg/mL	0.945
first compound 4 µg/mL	0.947
first compound 8 µg/mL	0.918

main component drawn
Conditions	Bliss interaction score
B. subtilis 168	-0.138
S. aureus DSM 20231	-0.0432
S. aureus Newman	0.0572
S. pneumoniae D39V [2]	0.0782

Clc1ccc(COC(Cn2ccnc2)c2ccc(Cl)cc2Cl)c(Cl)c1 (stereo not given) [Miconazole] + C/C(=C\C(=O)OCCCCCCCCC(=O)O)C[C@@H]1OC[C@H](C[C@@H]2O[C@H]2[C@@H](C)[C@H](C)O)[C@@H](O)[C@H]1O [Pseudomonic acid]
fitness, S. pneumoniae D39V [1]
Conditions	first compound 1.073 µg/mL	first compound 1.25 µg/mL	first compound 2.145 µg/mL	first compound 2.5 µg/mL	first compound 4.29 µg/mL	first compound 5 µg/mL
partner 0.03 µg/mL	0.988	0.915	≥ 1	0.894	≥ 1	0.88
partner 0.06 µg/mL	0.914	0.746	0.94	0.754	0.981	0.681
partner 0.12 µg/mL	0.734	0.563	0.759	0.551	–	0.549

Conditions	Bliss interaction score
B. subtilis 168	-0.0459
S. aureus DSM 20231	0.0125
S. aureus Newman	-0.0143
S. pneumoniae D39V [2]	0.126

Clc1ccc(COC(Cn2ccnc2)c2ccc(Cl)cc2Cl)c(Cl)c1 (stereo not given) [Miconazole] + CC1=C\[C@@H](O)CC(=O)Cc2nc(co2)C(=O)N2CCC=C2C(=O)O[C@H](C(C)C)[C@H](C)/C=C/C(=O)NC\C=C\1 [Virginiamycin M1]
fitness, S. pneumoniae D39V [1]
Conditions	first compound 1.073 µg/mL	first compound 1.25 µg/mL	first compound 2.145 µg/mL	first compound 2.5 µg/mL	first compound 4.29 µg/mL	first compound 5 µg/mL
partner 0.5 µg/mL	≥ 1	–	≥ 1	–	0.882	–
partner 1 µg/mL	≥ 1	–	≥ 1	–	≥ 1	–
partner 2 µg/mL	0.983	0.902	≥ 1	0.903	0.988	0.879

fitness, S. pneumoniae D39V [1], one replicate
Conditions	partner 0.15 µg/mL	partner 0.3 µg/mL	partner 0.5 µg/mL	partner 1 µg/mL
first compound 1.25 µg/mL	0.949	0.905	≥ 1	≥ 1
first compound 2.5 µg/mL	0.95	0.902	≥ 1	≥ 1
first compound 5 µg/mL	0.906	0.904	0.997	0.891

Conditions	Bliss interaction score
B. subtilis 168	0.103
S. aureus DSM 20231	0.0731
S. aureus Newman	0.0829
S. pneumoniae D39V [2]	0.0555

Source: the supplement of paper PMC10627819
